According to US12281119B2, “Imidazo[2,1-f][1,2,4]triazin-4-amine derivatives as TLR7 agonist” (BEIGENE, LTD., priority 2019, dated 2025):

Key:
human TLR 8 protein = molecular target: T1, human TLR 8 protein (Homo sapiens, UniProt Q9NR97); test: TLR8 stimulation determined using HEK-Blue Detection; format: cell-based; conditions: HEK-Blue hTLR8 cells, 16 hr, relative to Resiquimod or Motolimod maximum
T1 construct: expressed in transfected cells; host or cells: HEK293 (HEK-Blue hTLR8)
T1 sequence (Q9NR97 27-1041): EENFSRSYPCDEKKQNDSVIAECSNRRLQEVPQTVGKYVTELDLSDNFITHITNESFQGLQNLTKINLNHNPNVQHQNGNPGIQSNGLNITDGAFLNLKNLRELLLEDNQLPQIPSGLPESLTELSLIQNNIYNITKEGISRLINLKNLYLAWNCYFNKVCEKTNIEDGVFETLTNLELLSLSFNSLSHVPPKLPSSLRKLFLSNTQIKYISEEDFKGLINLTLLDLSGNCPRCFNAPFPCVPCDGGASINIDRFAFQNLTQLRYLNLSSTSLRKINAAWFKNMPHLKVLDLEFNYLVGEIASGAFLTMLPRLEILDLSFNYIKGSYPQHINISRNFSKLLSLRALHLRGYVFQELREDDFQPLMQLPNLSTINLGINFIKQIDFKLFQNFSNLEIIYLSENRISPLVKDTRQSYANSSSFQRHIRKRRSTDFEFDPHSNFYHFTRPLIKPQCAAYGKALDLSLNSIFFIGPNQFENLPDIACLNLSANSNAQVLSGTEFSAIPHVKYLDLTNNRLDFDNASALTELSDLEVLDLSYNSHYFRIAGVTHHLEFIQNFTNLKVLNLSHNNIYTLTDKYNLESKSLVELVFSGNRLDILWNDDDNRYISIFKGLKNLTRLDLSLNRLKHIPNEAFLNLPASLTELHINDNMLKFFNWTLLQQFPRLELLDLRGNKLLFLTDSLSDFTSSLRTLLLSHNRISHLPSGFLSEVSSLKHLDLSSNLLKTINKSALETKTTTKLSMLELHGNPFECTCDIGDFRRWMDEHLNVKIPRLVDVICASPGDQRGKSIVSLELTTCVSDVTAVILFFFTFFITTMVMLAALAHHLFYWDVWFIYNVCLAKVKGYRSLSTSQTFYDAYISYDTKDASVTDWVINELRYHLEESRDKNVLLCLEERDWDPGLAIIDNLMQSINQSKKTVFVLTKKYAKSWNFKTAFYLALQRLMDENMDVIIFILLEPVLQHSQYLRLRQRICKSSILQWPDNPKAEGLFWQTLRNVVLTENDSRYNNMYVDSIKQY
Outline: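 HEK-Blue hTLR8 cells with NF-κB/AP-1-driven SEAP reporter, 40000 cells/well, treated with 10-point dilutions (1 nM-10 uM final, 0.1% DMSO) for 16 hr at 37° C. SEAP read as OD 620-655 nm. EC50 derived from percent of maximum activation set by Resiquimod or Motolimod.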

human TLR7 = molecular target: T2, human TLR7 (Homo sapiens, UniProt Q9NYK1); test: TLR7 stimulation determined using HEK-Blue Detection; format: cell-based; set-up: expressed in transfected cells; host or cells: HEK293 (HEK-Blue hTLR7); conditions: HEK-Blue hTLR7 cells, HEK-Blue Detection (A77-A124), 16 hr, relative to Resiquimod maximum
T2 sequence (Q9NYK1 27-1049): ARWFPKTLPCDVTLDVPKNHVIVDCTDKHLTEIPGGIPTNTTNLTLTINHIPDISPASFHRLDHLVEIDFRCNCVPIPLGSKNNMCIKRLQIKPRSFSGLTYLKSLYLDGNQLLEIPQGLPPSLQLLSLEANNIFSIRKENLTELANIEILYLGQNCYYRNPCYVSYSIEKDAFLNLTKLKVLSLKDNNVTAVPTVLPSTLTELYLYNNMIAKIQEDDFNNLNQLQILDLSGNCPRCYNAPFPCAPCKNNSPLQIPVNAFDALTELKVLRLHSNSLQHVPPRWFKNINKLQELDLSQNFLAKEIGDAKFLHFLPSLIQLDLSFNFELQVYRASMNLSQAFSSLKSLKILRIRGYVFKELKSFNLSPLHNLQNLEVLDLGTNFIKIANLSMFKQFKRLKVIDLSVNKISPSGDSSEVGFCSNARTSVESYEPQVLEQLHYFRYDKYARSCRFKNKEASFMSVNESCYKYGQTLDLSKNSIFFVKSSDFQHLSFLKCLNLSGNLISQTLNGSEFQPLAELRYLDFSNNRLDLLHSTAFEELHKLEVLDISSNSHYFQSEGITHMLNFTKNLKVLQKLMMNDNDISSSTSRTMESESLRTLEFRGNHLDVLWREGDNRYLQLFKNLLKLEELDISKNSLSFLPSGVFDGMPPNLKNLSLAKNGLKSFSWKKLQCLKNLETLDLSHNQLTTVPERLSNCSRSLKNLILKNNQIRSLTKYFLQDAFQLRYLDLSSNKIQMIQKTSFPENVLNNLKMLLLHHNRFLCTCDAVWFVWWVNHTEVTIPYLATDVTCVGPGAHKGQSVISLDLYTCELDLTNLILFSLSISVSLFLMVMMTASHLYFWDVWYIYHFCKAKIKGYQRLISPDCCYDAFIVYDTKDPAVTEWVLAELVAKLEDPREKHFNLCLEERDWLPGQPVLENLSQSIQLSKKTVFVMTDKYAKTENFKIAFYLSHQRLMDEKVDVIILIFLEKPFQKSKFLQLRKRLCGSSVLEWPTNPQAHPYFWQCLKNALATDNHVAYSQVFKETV
Excerpt: TLR7 Stimulation Determined Using HEK-Blue Detection
This assay was designed for studying the stimulation of human TLR7 protein in HELK-Blue hTLR7 tool cell line by monitoring the activation of NF-κB. HEK-Blue hTLR7 cells were obtained by co-transfection of the hTLR7 gene and an optimized secreted embryonic alkaline phosphatase (SLAP) reporter gene into HEK293 cells. The SLAP reporter gene was placed under the control of the IFN-β minimal promoter fused to five NF-κB and AP-1-binding sites. Stimulation with a TLR7 ligand activates NF-κB and AP-1 which induce the expression of SLAP. Levels of SLAP can be easily determined with HEK-Blue Detection, a cell culture medium that allows for real-time detection of SLAP. HLK-Blue Detection contains all the nutrients necessary for cell growth and a specific SLAP color substrate. The hydrolysis of the substrate by SLAP produces a purple/blue color that can be measured with a spectrophotometer.
When growing to 50-80%0 confluency, HLK-Blue hTLR7 cells were plated into 96-well plate (costar 3599) at a density of 40000 cells/well. Then compounds were added with serial dilutions over 10 points with a 0.04 nM-10 μM final concentration range in 0.1% DMSO/BLK-Blue Detection. The plates were then incubated for 16 hr at 37° C. in […] and vortex for 30s before measurement. The optical density at 620-655 nm was read on BMG PHLRAstar FSX instrument. The EC50 for each compound was determined by calculating the percentages of the maximum activation identified with Resiquimod.

Structure (SMILES)	EC50 (human TLR 8 protein) [nM]	EC50 (human TLR7) [nM]
CCCC(C)Oc1nc(N)c2ncc(Cc3cnc(OCCNC)c(C)c3)n2n1 (stereo not shown) [Compound A78, 7-((5-methyl-6-(2-(methylamino)ethoxy)pyridin-3-yl)methyl)-2-(pentan-2-yloxy)imidazo[2,1-f][1,2,4]triazin-4-amine]	1140	23
CNCCOc1ccc(Cc2cnc3c(N)nc(OCC4CCOC4)nn23)cn1 (stereo not shown) [Compound A80, 7-((6-(2-(methylamino)ethoxy)pyridin-3-yl)methyl)-2-((tetrahydrofuran-3-yl)methoxy)imidazo[2,1-f][1,2,4]triazin-4-amine]	> 10000	446
CCC(CC)Oc1nc(N)c2ncc(Cc3ccc(OCCNC)nc3)n2n1 [Compound A83, 7-((6-(2-(methylamino)ethoxy)pyridin-3-yl)methyl)-2-(pentan-3-yloxy)imidazo[2,1-f][1,2,4]triazin-4-amine]	458	42.6
CCCC(CCO)Oc1nc(N)c2ncc(Cc3ccc(OCCCNC)nc3)n2n1 (stereo not shown) [Compound A86, 3-((4-amino-7-((6-(3-(methylamino)propoxy)pyridin-3-yl)methyl)imidazo[2,1-f][1,2,4]triazin-2-yl)oxy)hexan-1-ol]	541	57.7
CCCC(CCC)Oc1nc(N)c2ncc(Cc3ccc(OCCNC)nc3)n2n1 [Compound A87, 2-(heptan-4-yloxy)-7-((6-(2-(methylamino)ethoxy)pyridin-3-yl)methyl)imidazo[2,1-f][1,2,4]triazin-4-amine]	434	10.5
CNCCOc1ccc(Cc2cnc3c(N)nc(OCC4CCCO4)nn23)cn1 (stereo not shown) [Compound A88, 7-((6-(2-(methylamino)ethoxy)pyridin-3-yl)methyl)-2-((tetrahydrofuran-2-yl)methoxy)imidazo[2,1-f][1,2,4]triazin-4-amine]	> 10000	> 10000
CC[C@H](C)Oc1nc(N)c2ncc(Cc3ccc(OCCNC)nc3)n2n1 [Compound A89, (S)-2-(sec-butoxy)-7-((6-(2-(methylamino)ethoxy)pyridin-3-yl)methyl)imidazo[2,1-f][1,2,4]triazin-4-amine]	199	10

Next, values leading:

EC50 (human TLR 8 protein) [nM]	EC50 (human TLR7) [nM]	Structure (SMILES)
113	6	CCCC(CCO)Oc1nc(N)c2ncc(Cc3ccc(OCC(C)NC)nc3)n2n1 (single isomer, unassigned) [Compound A122, (R or S)-3-((4-amino-7-((6-(2-(methylamino)propoxy)pyridin-3-yl)methyl)imidazo[2,1-f][1,2,4]triazin-2-yl)oxy)hexan-1-ol]
15	0.7	CCCC(CCO)Oc1nc(N)c2ncc(Cc3c(F)cc(OCCNC)cc3F)n2n1 (single isomer, unassigned) [Compound A123, (R or S)-3-((4-amino-7-(2,6-difluoro-4-(2-(methylamino)ethoxy)benzyl)imidazo[2,1-f][1,2,4]triazin-2-yl)oxy)hexan-1-ol]
105	1.2	CCCC(CCO)Oc1nc(N)c2ncc(Cc3ccc(OCCNC)c4ccccc34)n2n1 (single isomer, unassigned) [Compound A124, (R or S)-3-((4-amino-7-((4-(2-(methylamino)ethoxy)naphthalen-1-yl)methyl)imidazo[2,1-f][1,2,4]triazin-2-yl)oxy)hexan-1-ol]
293	19.2	CCCC(C)Oc1nc(N)c2ncc(Cc3ccc(OCCNC)nc3)n2n1 (stereo not shown) [Compound A77, 7-((6-(2-(methylamino)ethoxy)pyridin-3-yl)methyl)-2-(pentan-2-yloxy)imidazo[2,1-f][1,2,4]triazin-4-amine]
69	10	CCCC(CCO)Oc1nc(N)c2ncc(Cc3ccc(OCCNC)nc3)n2n1 (stereo not shown) [Compound A79, 3-((4-amino-7-((6-(2-(methylamino)ethoxy)pyridin-3 yl)methyl)imidazo[2,1-f][1,2,4]triazin-2-yl)oxy)hexan-1-ol]
192	6.9	CCCC(CC)Oc1nc(N)c2ncc(Cc3ccc(OCCNC)nc3)n2n1 (stereo not shown) [Compound A84, 2-(hexan-3-yloxy)-7-((6-(2-(methylamino)ethoxy)pyridin-3-yl)methyl)imidazo[2,1-f][1,2,4]triazin-4-amine]
41	4.5	CCCC(CCO)Oc1nc(N)c2ncc(Cc3ccc(OCCNC)cc3)n2n1 (stereo not shown) [Compound A85, 3-((4-amino-7-(4-(2-(methylamino)ethoxy)benzyl)imidazo [2,1-f][1,2,4]triazin-2-yl)oxy)hexan-1-ol]
112	8.9	CCC[C@H](C)Oc1nc(N)c2ncc(Cc3ccc(OCCNC)nc3)n2n1 [Compound A90, (S)-7-((6-(2-(methylamino)ethoxy)pyridin-3-yl)methyl)-2-(pentan-2-yloxy)imidazo[2,1-f][1,2,4]triazin-4-amine]
15	2.1	CCCC(CCO)Oc1nc(N)c2ncc(Cc3ccc(OCCNC)c(F)c3)n2n1 (stereo not shown) [Compound A91, 3-((4-amino-7-(3-fluoro-4-(2-(methylamino)ethoxy)benzyl)imidazo[2,1-f][1,2,4]triazin-2-yl)oxy)hexan-1-ol]
146	13.8	CCCC(CCO)Oc1nc(N)c2ncc(Cc3ccc(N(C)CCNC)cc3)n2n1 (stereo not shown) [Compound A94, 3-((4-amino-7-(4-(methyl(2-(methylamino)ethyl)amino)benzyl)imidazo[2,1-f][1,2,4]triazin-2-yl)oxy)hexan-1-ol]
